Laboratory results: patent US12496304B2, “Selective glucocorticoid receptor modifiers for treating impaired skin wound healing” (AKRIBES BIOMEDICAL GMBH, priority 2019, dated 2025)
Like-named read-outs stand apart in the source and are kept apart here.

How the values were obtained:
Collagen 1a = assay: mRNA expression in fibroblast cultures (qRT-PCR): collagen 1; assay type: cell-based, human; settings: WE-1, graded concentrations, 72-hour incubation (FIG. 6A)
Procedure: (§1) Cells were seeded into 24-well plates and incubated with compounds in the presence or absence of wound exudates for 72 hours. Total RNA was isolated using the RNeasy Mini Kit (QIAGEN #74106) according to the manufacturer's protocol. RNA integrity and concentration for each sample was confirmed and measured with the Qubit fluorometer. Each RNA sample was then diluted to 2 ng/μl in nuclease-free doubly distilled water.
(§2) 20 ng of total RNA were reverse-transcribed into cDNA and immediately subjected to PCR amplification using the SuperScript Ill Platinum One-Step Quantitative RT-PCR System with ROX (Invitrogen #11745). qRT-PCR amplifications were performed in 20 μl reactions containing 9 μl 2× Reaction Mix with ROX, 0.4 μl SuperScript III RT/Platinum Taq Mix and 1 μl primer (final: 900 nM, Taqman Gene Expression Assay, Applied Biosystems)
(§3) The program included 30 minutes of reverse transcription at 48° C., an initial denaturation for 5 minutes at 95° C. followed by 40 cycles of denaturation at 95° C. for 15 seconds and annealing at 60° C. for 60 seconds. Reactions were set up in 96-well format PCR plates (Peqlab #732-2879) and carried out in a Mx3005P Real-Time PCR Detection System (Stratagene).
(§4) TaqMan Gene Expression Assays (Applied Biosystems) were used, which include preoptimized probe and primer sets specific for the genes being validated. The sequences and ID numbers are listed below:
(§5) The house keeping gene elongation factor 1a (EF1a) was used as a reference gene. Normalized expression was calculated using the comparative Ct (or ΔCt) method, and fold changes were derived from the 2-ΔΔCt values for each gene. Graphs were prepared using relative Ct values that were calculated by subtracting the EF1a Ct values from the corresponding Ct values for the gene being measured.

[1] = test system: primary human dermal fibroblasts (HDF); assay: Fibroblast proliferation assay (2D) in the presence of wound exudate; assay type: cell-based
Procedure: Primary human dermal fibroblasts (HDF) were purchased from CELLnTEC, Bern. They were routinely grown in Dulbecco's modified Eagle's medium (DMEM) containing 10% FCS, 2 mM glutamine, and 100 U/ml penicillin/100 μg/ml streptomycin. Media, antibiotics, and glutamine were bought from Lonza. The cells were used at passage 5-15. Cells were trypsinized and seeded at 2500 cells/well in 30 μl into the inner wells of 384-well plates in the absence or presence of graded compound concentrations with or without different dilutions of sterile-filtered WE in medium. For control samples, 30 μl medium was added instead of specific stimuli. The outer wells were loaded with sterile water. The cells were incubated for 72 hours at 37° C.
At the end of the incubation period, supernatants were removed for the determination of IL-1β, and the cells were fixed with 4% paraformaldehyde (Morphisto) for 15 minutes at room temperature and washed 3 times with PBS. A control plate was fixed after the overnight adherence of the cells (day 1) to determine the starting cell number.
Total cellular protein was determined as a measure of cell number by staining the fixed cells with sulforhodamine B (SRB, Sigma). A 0.4% SRB solution in 1% acetic acid was added to the wells for 30 minutes. The wells were then washed with 1% acetic acid until the wash solution remained colorless. After drying, the dye was eluted with 10 mM Tris-HCl, pH8.5, and absorbance was measured either at 550 or 492 nm for lower and higher cell densities, respectively. The average absorbance of the sample representing the day 1 starting cell number was subtracted from the absorbance values of the WE-treated cells.
All experiments were carried out in triplicate for each sample and concentration, and means±standard deviation (SD) were used for the evaluation of the experiment. Results are expressed as percentage of control values for unstimulated cells.

IL1β = assay: mRNA expression in fibroblast cultures (qRT-PCR): IL-1β; assay type: cell-based, human
Procedure: as §1
as §2, with “Biosystems) […]” for “Biosystems)”
as §5

Collagen 3a = assay: mRNA expression in fibroblast cultures (qRT-PCR): collagen 3; assay type: cell-based, human; settings: WE-1, graded concentrations, 72-hour incubation (FIG. 7A)
Procedure: as §1, §2, §3, §4, §5

glucocorticoid receptor [2] = target: T1, glucocorticoid receptor (Homo sapiens, UniProt P04150); settings: read-out: EC50, potency for glucocorticoid receptor activation; cited from earlier work
T1 sequence (P04150 1-777): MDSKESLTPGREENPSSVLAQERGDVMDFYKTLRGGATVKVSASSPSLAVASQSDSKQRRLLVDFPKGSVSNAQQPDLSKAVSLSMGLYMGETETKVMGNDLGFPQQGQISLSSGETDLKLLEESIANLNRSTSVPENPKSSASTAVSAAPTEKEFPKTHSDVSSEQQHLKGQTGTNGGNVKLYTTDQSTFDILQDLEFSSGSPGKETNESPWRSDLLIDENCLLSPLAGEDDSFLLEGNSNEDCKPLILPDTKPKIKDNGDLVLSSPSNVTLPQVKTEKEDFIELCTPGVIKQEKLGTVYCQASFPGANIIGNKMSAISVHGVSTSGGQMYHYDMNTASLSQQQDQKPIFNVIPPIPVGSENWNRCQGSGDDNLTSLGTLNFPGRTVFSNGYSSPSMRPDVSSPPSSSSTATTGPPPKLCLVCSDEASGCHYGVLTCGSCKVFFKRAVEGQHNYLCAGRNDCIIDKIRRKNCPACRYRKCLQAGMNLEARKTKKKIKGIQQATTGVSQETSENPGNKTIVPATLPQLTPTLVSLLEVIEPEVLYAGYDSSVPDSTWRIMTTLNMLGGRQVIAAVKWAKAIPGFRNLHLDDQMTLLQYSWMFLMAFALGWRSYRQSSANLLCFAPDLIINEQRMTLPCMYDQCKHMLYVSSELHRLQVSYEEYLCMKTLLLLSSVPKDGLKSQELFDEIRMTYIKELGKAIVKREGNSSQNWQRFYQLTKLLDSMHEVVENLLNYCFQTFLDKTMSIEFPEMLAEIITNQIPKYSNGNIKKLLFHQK

glucocorticoid receptor [3] = target: T1, glucocorticoid receptor; settings: 45 minutes at 37° C.
IL-8 = assay: U937 cell stimulation assay (LPS-induced IL-8); assay type: cell-based, human; settings: LPS 100 ng/ml, 16 hours (FIG. 16A)
Procedure: The human monocytic cell line U937 (ATCC CRL 1593) was routinely grown in RPMI_1640 supplemented by 10% FCS and 2 mM glutamine, and 100 U/ml penicillin/100 μg/ml streptomycin. Cells were seeded at 4×10^5/ml in 50 μl/well of a 384-well plate and combined cells with graded concentrations of test compounds and LPS at 100 ng/ml. After 16 hours, the supernatants were transferred to fresh plates and frozen at −20° C. for IL-8 analysis, using a commercial ELISA kit.

In the case of `Cc1ccc2c(NC[C@](O)(CC(C)(C)c3cc(F)cc4c3OCC4)C(F)(F)F)cccc2n1` [Mapracorat], the “collagen 1 mRNA expression” value (Collagen 1a) is reported as “dose-dependently enhanced collagen 1 mRNA expression in the presence of WE”, the “effect on fibroblast proliferation in the presence of >80 human wound exudates” value ([1]; >80 human wound exudates from chronic wound patients) is reported as > 120% and the “fibroblast proliferation (2D) with wound exudate” value ([1]; WE-4 (FIG. 5), graded concentrations) is reported as “dose-dependently reversed inhibition of wound exudate (WE)-induced fibroblast proliferation”. The “IL-1β mRNA expression” value (IL1β; WE-1, graded concentrations, 72-hour incubation (FIG. 8A)) was “dose-dependently inhibited IL-1β mRNA expression in the presence of WE”, the “IL-1β mRNA expression” value (IL1β; medium in the absence of WE, 72-hour incubation (FIG. 8B)) was “no IL-1β induction in medium” and the “collagen 3 mRNA expression” value (Collagen 3a) was “at all three concentrations enhanced collagen 3 mRNA expression in the presence of WE”. For the same compound, the EC50 (glucocorticoid receptor [2]) was 1.9 nM, the “localization of the glucocorticoid receptor” value (from here on “localization”) (glucocorticoid receptor [3]; 0.1 nM) was “N/C” and the “localization” value (glucocorticoid receptor [3]; 1 nM) was “N”. For the same compound, the “localization” value (glucocorticoid receptor [3]; 100 nM) was “N”, the “localization” value (glucocorticoid receptor [3]; 10 nm) was “N” and the “LPS-induced IL-8 secretion in U937 cells” value (IL-8) was “inhibited both LPS-induced and spontaneous IL-8 secretion”.
